Assay results: patent publication US10799433B2, “Foaming antimicrobial compositions” (S.C. Johnson & Son, Inc., priority 2016, dated 2020)

System: C. albicans 10231
Test: Skin conditioner impact on antimicrobial efficacy
Assay type: cell-based, Candida albicans
Settings: skin conditioner added to prototype composition
Source text: FIG. 6 is a bar graph showing the effect on the antimicrobial efficacy (average log reduction of C. albicans 10231) for three prototype antimicrobial compositions sharing all the same ingredients but differing in the amount of added PEG-45 palm kernel glycerides (ranging from 0 to 1.0%) in comparison to a commercial antimicrobial soap (ECOLAB Equi-Soft™ soap).

PEG-45 palm kernel glycerides
impact on the efficacy: negative impact
